From ChEMBL document CHEMBL3046246, “Synthesis of spirothiohydantoin analogues of hydantocidin” (1995) come the findings set out here.

Holding throughout (type): functional
What all share (settings): 240 h, read-out: GI

One assay concerns Panicum dichotomiflorum. Nature of the assay: Herbicidal activity against three-leaf stage Panicum dichotomiflorum assessed as plant growth inhibition at 1000 ppm applied through foliar spraying measured after 10 days post compound treatment relative to untreated control.
A further assay deals with Ambrosia artemisiifolia. Briefly: Herbicidal activity against three-leaf stage Ambrosia artemisiifolia (ragweed) assessed as plant growth inhibition at 1000 ppm applied through foliar spraying measured after 10 days post compound treatment relative to untreated control.
The subject of the next assay is Ipomoea purpurea. Briefly: Herbicidal activity against 3-leaf stage tall Ipomoea purpurea (common morning-glory) assessed as plant growth inhibition at 1000 ppm applied through foliar spraying measured after 10 days post compound treatment relative to untreated control.
A further assay deals with Sorghum halepense. Briefly: Herbicidal activity against three-leaf stage Sorghum halepense (Johnson grass) assessed as plant growth inhibition at 1000 ppm applied through foliar spraying measured after 10 days post compound treatment relative to untreated control.
The next assay concerns Echinochloa crus-galli. Nature of the assay: Herbicidal activity against three-leaf stage Echinochloa crus-galli (barnyard grass) assessed as plant growth inhibition at 1000 ppm applied through foliar spraying measured after 10 days post compound treatment relative to untreated control.
For another assay, the system named is Digitaria sanguinalis. Briefly: Herbicidal activity against three-leaf stage Digitaria sanguinalis (hairy crabgrass) assessed as plant growth inhibition at 1000 ppm applied through foliar spraying measured after 10 days post compound treatment relative to untreated control.
A further assay deals with Abutilon theophrasti. Briefly: Herbicidal activity against three-leaf stage Abutilon theophrasti (velvetleaf) assessed as plant growth inhibition at 1000 ppm applied through foliar spraying measured after 10 days post compound treatment relative to untreated control.
Another assay relates to Setaria viridis. Nature of the assay: Herbicidal activity against three-leaf stage Setaria viridis (green foxtail) assessed as plant growth inhibition at 1000 ppm applied through foliar spraying measured after 10 days post compound treatment relative to untreated control.
The next assay concerns Xanthium strumarium. Briefly: Herbicidal activity against three-leaf stage Xanthium strumarium (cocklebur) assessed as plant growth inhibition at 1000 ppm applied through foliar spraying measured after 10 days post compound treatment relative to untreated control.
A further assay concerns Solanum nigrum. Nature of the assay: Herbicidal activity against three-leaf stage Solanum nigrum (black nightshade) assessed as plant growth inhibition at 1000 ppm applied through foliar spraying measured after 10 days post compound treatment relative to untreated control.

For `O=C1NC(=S)N[C@]12O[C@H](CO)[C@@H](O)[C@H]2O`, the inhibition of growth at 1000 ppm with Panicum dichotomiflorum was 80%; in the assay with Ambrosia artemisiifolia, 80%; in the assay on Ipomoea purpurea, 80%; with Sorghum halepense, 95%; in the assay on Echinochloa crus-galli, 95%; in the assay on Digitaria sanguinalis it was 95%. In addition, the inhibition of growth at 1000 ppm in the assay with Abutilon theophrasti was found to be 80%; in the assay with Setaria viridis, 95%; in the assay with Xanthium strumarium, 95%; with Solanum nigrum, 80%.
For `O=C1NC(=S)N[C@@]12O[C@H](CO)[C@@H](O)[C@H]2O`, the inhibition of growth at 1000 ppm in the assay with Panicum dichotomiflorum came to 80%; with Ambrosia artemisiifolia, 95%; in the assay on Ipomoea purpurea it was 95%; in the assay with Sorghum halepense, 95%; in the assay with Echinochloa crus-galli, 95%; with Digitaria sanguinalis, 95%. Further, the inhibition of growth at 1000 ppm in the assay with Abutilon theophrasti, in the assay on Setaria viridis, in the assay with Xanthium strumarium and with Solanum nigrum was 95% each time.
`O=C1NC(=O)[C@@]2(N1)O[C@H](CO)[C@@H](O)[C@H]2O` [HYDANTOCIDIN]: the inhibition of growth at 1000 ppm with Panicum dichotomiflorum, with Ambrosia artemisiifolia, in the assay with Ipomoea purpurea, in the assay on Sorghum halepense, in the assay on Echinochloa crus-galli and in the assay on Digitaria sanguinalis was 95% each time. Moreover, the inhibition of growth at 1000 ppm in the assay on Abutilon theophrasti, in the assay with Setaria viridis, with Xanthium strumarium and in the assay on Solanum nigrum was 95% in each case.
Regarding `O=C1NC(=O)[C@]2(N1)O[C@H](CO)[C@@H](O)[C@H]2O` [HYDANTOCIDIN], the inhibition of growth at 1000 ppm in the assay with Panicum dichotomiflorum came to 80%; in the assay with Ipomoea purpurea, 30%; in the assay with Sorghum halepense, 0%; in the assay on Echinochloa crus-galli, 10%; with Digitaria sanguinalis, 80%; with Abutilon theophrasti, 80%. The inhibition of growth at 1000 ppm in the assay with Setaria viridis was 80%; with Xanthium strumarium it was 80%; in the assay with Solanum nigrum it was 50%.
